Experimental data reported in patent publication US20250282723A1, “AMYLOID TARGETING AGENTS AND METHODS OF USING THE SAME” (The Regents of the University of California, priority 2021, published 2025).
“And” between values parts separate entries of the source, which are not always exact repeats. Equal entries are not always repeated.

Columns and labels:
[1] = target: T1, aggregated Aβ (1-42) peptides (Homo sapiens, UniProt P05067); assay: Fluorescence excitation/emission and fluorescence enhancement of probes bound versus unbound to aggregated Aβ (1-42) peptides; type: binding; conditions: probe 4 μM; for Em (λmax) (with Aβ) / Ex (λmax) (with Aβ): aggregated Aβ (1-42) 5 μM; for Em (λmax) (with Aβ) / Ex (λmax) (with Aβ) / Fold Increase with Aβ / Emmax (with Aβ): 5% DMSO in nanopure water; for Fold Increase with Aβ: fluorescence intensity with aggregated Aβ (1-42) 5 μM vs probe alone, at λmax of the amyloid-bound state; for Emmax (with Aβ) / FI with Aβ: probes of FIG. 14, aggregated Aβ(1-42) 5 μM; for FI with Aβ: fold increase of fluorescence, bound vs unbound
T1 construct: Synthetic Aβ (1-42) peptide was purchased from Biopeptide, Co LLC; purchased Biopeptide, Co LLC (San Diego, California); host or cells: chemical synthesis
T1 sequence (P05067 672-713): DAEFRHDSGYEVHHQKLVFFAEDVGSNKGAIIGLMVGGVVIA
Experimental: (§1) Preparation of aggregated Aβ (1-42) peptides. Synthetic Aβ (1-42) peptide was purchased from Biopeptide, Co LLC (San Diego, California). Aggregated Aβ (1-42) was prepared as previously described.^26 Briefly, Aβ (1-42) was dissolved in 100% 1,1,1,3,3,3,-hexafluoro-2-propanol (HFIP) to a concentration of 1 mM and put on a shaker at room temperature (RT) for 24 hours. The solution was then diluted in cold nanopure water (2:1 H2O: HFIP). Aliquoted fractions were lyophilized for 3 days before dissolving in nanopure water to a concentration of 100 μM. Aggregated Aβ solutions were incubated and shaken at 37° C. for 3 days before use. The formation of soluble aggregates (67% fibrils as a mixture with 13% oligomers and 20% monomer) was confirmed using a standard thioflavin T (ThT) assay and by Sodium Dodecyl Sulphate-Polyacrylamide Gel Electrophoresis (SDS-PAGE) gel analysis (FIG. 11 and FIG. 12).
(§2) Estimation of fluorescence enhancement of probes when bound versus unbound to aggregated Aβ (1-42) peptides. Aggregated Aβ (1-42) at a final concentration of 5 μM (based on the molecular weight of monomer) was mixed with each fluorescent probe at a final concentration of 4 μM in 5% DMSO in nanopure water. The solution (80 μL) was transferred to a black opaque 96 well plate and the fluorescence was read using a microplate reader. For all probes, the relative fluorescence enhancement of the bound versus unbound state was estimated by comparing the intensity at λmax of the amyloid-bound state.
(§3) Synthetic Aβ (1-42) peptide was purchased from Biopeptide, Co LLC (San Diego, California). Aggregated Aβ (1-42) was prepared as previously described.^32 Briefly, monomeric Aβ (1-42) was dissolved in 100% 1,1,1,3,3,3,-hexafluoro-2-propanol (HFIP) to a final concentration of 1 mM and dissolved on a shaker at RT for 24 hours. This solution was then diluted with cold nanopure water (2:1 H2O:HFIP) and aliquoted into fractions. These samples were then lyophilized for 3 days before dissolving in nanopure water to a final concentration of 100 μM. AD solutions were aggregated by incubating and shaking at 37° C. for 3 days before use. The formation of soluble aggregates was confirmed using a standard Thioflavin T (ThT) assay and by SDS-PAGE gel analysis.^1
(§4) Aggregated αS or Aβ(1-42) at a final concentration of 5 μM (based on the molecular weight of monomer) was mixed with each fluorescent probe at a final concentration of 4 μM in 5% DMSO in nanopure water. The solution (80 μL total volume) was transferred to a black opaque 96 well plate and the fluorescence excitation and emission were read using a microplate reader. For emission fluorescence enhancement, the relative fluorescence enhancement of the bound versus unbound state was estimated by comparing the fluorescence intensity at λmax of the amyloid-bound state.

[2] = target: T1, aggregated Aβ (1-42) peptides; assay: Estimation of binding constant (KD) to aggregated Aβ (1-42) peptides; conditions: aggregated Aβ(1-42) 5 μM, increasing concentration of probe, 5% DMSO in nanopure water
Experimental: as §1
Estimation of Binding Constant (KD) to aggregated Aβ (1-42) peptides. Aggregated Aβ(1-42) at a final concentration of 5 μM (based on the molecular weight of monomer) was mixed with increasing concentration of each probe in 5% DMSO in nanopure water. KD's were determined as previously described.^21
as §3
Aggregated Aβ(1-42) or αS at a final concentration of 5 μM (based on the molecular weight of the monomer) was mixed with an increasing concentration of each probe in 5% DMSO in nanopure water. Kd's were calculated as previously described.^34 The measurements for each probe were repeated in technical triplicates and the averages are shown with standard deviations. Kd's for probes 1-3 with aggregated Aβ(1-42) have been reported previously.^31

[3] = Fluorescence excitation and emission spectra of free (unbound) probes in aqueous solution; type: physicochemical; conditions: for Em (λmax) (Free) / Ex (λmax) (Free): free probe in aqueous solution; for fluorescence intensity of the free probe in aqueous solution compared to ARCAM (1): free probes in aqueous solution, FIG. 2; for Emmax (Free): probes of FIG. 14, free
Experimental: as §2, §4

Compound | Em (λmax) (with Aβ) [1] [nm] | Ex (λmax) (with Aβ) [1] [nm] | Fold Increase with Aβ [1] | Emmax (with Aβ) [1] [nm] | FI with Aβ [1] | Kd [2] [µM] | Em (λmax) (Free) [3] [nm] | Ex (λmax) (Free) [3] [nm] | fluorescence intensity of the free probe in aqueous solution compared to ARCAM (1) [3] | Emmax (Free) [3] [nm] | Fold Increase with Aβ ([1]; listed as ARCAM (1)) [fold]
COCCOCCOCCNC(=O)/C(C#N)=C/c1ccc2cc(N3CCCCC3C)ccc2c1 (racemic) [Compound 4, (E)-2-cyano-N-(2-(2-(2-methoxyethoxy)ethoxy)ethyl)-3-(6-(2-methylpiperidin-1-yl)naphthalen-2-yl)acrylamide] | 559 ± 8 | 439 ± 3 | 1.9 fold and 1.9 ± 0.5 fold | 559 | 1.9 ± 0.5 | 4.4 ± 2.3 | 583 ± 1 | 431 ± 4 | lower but similar in magnitude to ARCAM (1) | 583 | –
COCCOCCOCCNC(=O)C(C#N)=Cc1ccc2cc(N3CCCCC3)ccc2c1 (mixture of isomers) [Compound 1] | 560 ± 10 | 421 ± 4 | 2.1 ± 0.7 fold | 560 | 2.1 ± 0.7 | 6.3 ± 0.7 | 590 ± 4 | 409 ± 11 | – | 590 | 2.1
CCC1CCCCN1c1ccc2cc(/C=C(\C#N)C(=O)NCCOCCOCCOC)ccc2c1 (racemic) [Compound 5, (E)-2-cyano-3-(6-(2-ethylpiperidin-1-yl)naphthalen-2-yl)-N-(2-(2-(2-methoxyethoxy)ethoxy)ethyl)acrylamide] | 567 ± 5 | 443 ± 5 | 1.2 fold and 1.2 ± 0.1 fold | 567 | 1.2 ± 0.1 | 3.2 ± 0.6 | 575 ± 6 | 445 ± 1 | lower but similar in magnitude to ARCAM (1) | 575 | –
